Literature values as cited in patent US20080269347A1, “EPINEPHRINE FORMULATIONS” (Azopharma, Inc., priority 2006, published 2008).
Counter-ions that a name gives are not always drawn. Like-named read-outs stand apart in the source and are kept apart here.

For CNC[C@H](O)c1ccc(O)c(O)c1 [Epinephrine hydrochloride], the “pH at which unstable” value (in dextrose (5% in water)) is listed as “above 5.5”, the “stability when mixed with lidocaine hydrochloride” value (intravenous admixture, pH raised above 5.5 to about 6) is listed as “begin to deteriorate within several hours” and the decomposition (pH 2.5, in 200 days at 30° C.) is listed as 5%. The decomposition (pH 4.5, in 200 days at 30° C.) was 10%.
